Test results published in patent publication US20070270421A1, “Novel pyridine Derivative and Pyrimidine Derivative (1)” (priority 2004, published 2007).

Assays:
[1] = tested on: Human gastric cancer cells (MKN-45); assay: Inhibitory activity against the proliferation of human gastric cancer cells (MKN-45); assay type: cell-based; conditions: 72 h, MKN-45, 1% FBS RPMI1640, 3 days, Cell Counting Kit-8, read-out: IC50 (concentration necessary to inhibit the cell proliferation by 50%)
Experimental: Human gastric cancer cells (MKN-45) were suspended in a 1% FBS-containing RPMI1640 medium (purchased from Sigma). The cell suspension (1×10^4 cells/ml) was added in a 96-well plate for cell culture (purchased from NUNC, Production No. 167008) at 0.1 ml/well, and then cultured in a 5% CO2 incubator (37° C.) overnight. After the culture, each well was supplied with 0.1 ml of a test substance diluted with a 1% FBS-containing RPMI1640 medium, followed by culturing in a 5% CO2 incubator (37° C.) for 3 days. After the culture, each well was supplied with 10 μl of Cell Counting Kit-8 (purchased from DOJINDO, Production No. 343-07623), followed by incubation in a 5% CO2 incubator (37° C.) for about 1.5 hrs. After the incubation, using the Plate Reader MTP-500 (Corona Electric), the absorbance of each well was determined at a measurement wavelength of 450 nm and a reference wavelength of 660 nm. The ratio (%) of absorbance of each well supplied with a test substance to absorbance of the well supplied with no test substance was calculated, and the ratio was used to calculate the concentration (IC50) of the test substance necessary to inhibit the cell proliferation by 50%.

HGFR autophosphorylation = target: T1, HGFR autophosphorylation (Homo sapiens, UniProt P08581); assay: Inhibitory activity against the HGFR autophosphorylation using ELISA; assay type: cell-based; conditions: MKN-45 cells, 1 hr treatment, read-out: IC50 (concentration necessary to inhibit HGFR autophosphorylation activity by 50%)
T1 construct: endogenous in cells; host or cells: MKN-45 human gastric cancer cells
T1 sequence (P08581 25-1390): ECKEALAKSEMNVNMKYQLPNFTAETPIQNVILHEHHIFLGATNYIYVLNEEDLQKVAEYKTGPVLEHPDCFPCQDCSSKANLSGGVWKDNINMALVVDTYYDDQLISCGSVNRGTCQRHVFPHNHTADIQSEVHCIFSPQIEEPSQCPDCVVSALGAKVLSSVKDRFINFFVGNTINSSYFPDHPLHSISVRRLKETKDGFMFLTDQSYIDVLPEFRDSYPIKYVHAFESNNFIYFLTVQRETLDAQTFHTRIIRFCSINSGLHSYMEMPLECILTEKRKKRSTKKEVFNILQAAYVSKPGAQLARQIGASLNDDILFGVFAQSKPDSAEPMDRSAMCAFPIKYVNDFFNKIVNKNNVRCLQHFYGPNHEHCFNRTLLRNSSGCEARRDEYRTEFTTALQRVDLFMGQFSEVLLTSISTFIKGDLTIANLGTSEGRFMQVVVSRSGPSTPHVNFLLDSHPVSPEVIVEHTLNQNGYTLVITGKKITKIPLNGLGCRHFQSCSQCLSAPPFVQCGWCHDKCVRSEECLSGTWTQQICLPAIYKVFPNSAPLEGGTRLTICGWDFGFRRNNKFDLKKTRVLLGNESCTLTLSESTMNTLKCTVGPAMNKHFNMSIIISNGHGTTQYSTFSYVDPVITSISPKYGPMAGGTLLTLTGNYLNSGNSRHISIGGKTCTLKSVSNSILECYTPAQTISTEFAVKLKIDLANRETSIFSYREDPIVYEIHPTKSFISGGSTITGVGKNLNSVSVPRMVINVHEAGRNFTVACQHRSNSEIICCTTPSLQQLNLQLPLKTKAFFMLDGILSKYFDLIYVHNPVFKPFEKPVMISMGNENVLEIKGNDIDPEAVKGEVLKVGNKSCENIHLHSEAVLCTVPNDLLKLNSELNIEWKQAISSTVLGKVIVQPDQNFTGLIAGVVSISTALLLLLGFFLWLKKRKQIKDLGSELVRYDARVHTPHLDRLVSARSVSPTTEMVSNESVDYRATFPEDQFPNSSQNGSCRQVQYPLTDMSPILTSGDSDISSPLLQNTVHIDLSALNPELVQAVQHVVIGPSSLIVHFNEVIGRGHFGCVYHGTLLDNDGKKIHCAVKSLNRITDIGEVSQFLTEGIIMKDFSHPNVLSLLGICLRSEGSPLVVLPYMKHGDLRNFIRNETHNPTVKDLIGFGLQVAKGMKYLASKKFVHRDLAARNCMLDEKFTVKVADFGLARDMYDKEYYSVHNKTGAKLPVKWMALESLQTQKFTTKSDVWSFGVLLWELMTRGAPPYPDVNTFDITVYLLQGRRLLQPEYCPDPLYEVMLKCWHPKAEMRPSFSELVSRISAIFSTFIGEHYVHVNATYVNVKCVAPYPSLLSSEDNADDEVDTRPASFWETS
Experimental: Human gastric cancer cells (MKN-45) were suspended in a 1% FBS-containing RPMI1640 medium (purchased from Sigma). The cell suspension (1×10^5 cells/ml) was put in a 96-well plate for cell culture (purchased from NUNC, Production No. 167008) at 0.1 ml/well, and then cultured in a 5% CO2 incubator (37° C.) overnight. After the culture, from each well was removed the supernatant solution, followed by adding 0.05 ml of a 1% FBS-containing RPMI1640 medium. Then, the well was supplied with 0.05 ml of the test substance dissolved in dimethyl sulfoxide (diluted with a 1% FBS-containing RPMI1640 medium), followed by culturing in a 5% CO2 incubator (37° C.) for 1 hr. From each well was removed the supernatant, and each well was washed with 150 μl of PBS, followed by adding 100 μl of a lysis buffer (50 mM Hepes (pH 7.4), 150 mM NaCl, 10% (v/v) glycerol, 1% Triton X-100, 1.5 mM MgCl2, 1 mM EDTA (pH 8.0), 100 mM NaF, 1 mM PMSF, 10 μg/ml Aprotinin, 50 μg/ml Leupeptin, 1 μg/ml Pepstatin A and 1 mM Na3VO4). The plate was shaken at 4° C. for 1 hr to prepare the cell extract.
To a 96-well plate for ELISA (purchased from COSTAR, Production No. 3369) was added 50 μl of 60 mM bicarbonate buffer (pH 9.6) containing 50 μg/ml of an anti-phosphotyrosine antibody (PY20, purchased from Transduction Laboratory, Production No. P-11120). The plate was incubated at 4° C. overnight.
Each well of the plate prepared in 2. was washed three times with 200 μl of PBS, and supplied with 150 μl of 3% BSA/PBS, followed by incubating at room temperature for 2 hrs. Each well was washed three times with 200 μl of PBS, and supplied with 50 μl of the above cell extract, followed by incubating at 4° C. overnight. After the incubation, each well was washed three times with 250 μl of a washing solution (0.1% BSA, 20 mM Tris-HCl (pH 7.6), 137 mM NaCl, and 0.05% Tween-20), and supplied with 70 μl of anti-HGFR antibody (h-Met(C-12), purchased from Santa Cruz, Production No. sc-10) 2,000-fold diluted with a reaction solution (1% BSA, 20 mM Tris-HCl (pH 7.6), 137 mM NaCl and 0.05% Tween-20), followed by incubating at room temperature for 1 hr. The well was washed three times with 250 μl of the washing solution, and supplied with 70 μl of peroxidase-labelled anti-rabbit IgG antibody (purchased from Cell Signaling, Production No. 7074) 2,000-fold diluted with the reaction solution, followed by incubating at room temperature for 1 hr. Each well was washed three times with 250 μl of the washing solution, and supplied with 70 μl of TMB Membrane Peroxidase Substrate (purchased from Funakoshi, Production No. 50-5077-03), followed by incubating at room temperature for 10 min. Each well was supplied with 70 μl of 1 M phosphoric acid, and using the Plate Reader MTP-500 (Corona Electric), the absorbance of the well was instantly determined at a measurement wavelength of 450 nm. While defining the absorbance of a well supplied with the cell extract having no test substance as 100% HGFR autophosphorylation activity, and the absorbance of a well supplied with 50 μl of the lysis buffer as 0% HGFR autophosphorylation activity, the HGFR autophosphorylation activity (%) was calculated for each well. The concentration of the test substance was changed by several levels to calculate HGFR autophosphorylation activities (%) in respective cases, and to calculate the concentration (IC50) of the test substance necessary to inhibit HGFR autophosphorylation activity by 50%.

IC50 [1] [nM] | IC50 (HGFR autophosphorylation) [nM] | SMILES
180 | 43 | O=C(Cc1ccccc1)NC(=S)Nc1ccc(Oc2ccnc(NC(=O)N3CCOCC3)c2)c(Cl)c1 [Example 11, 4-{2-Chloro-4-[3-(2-phenylacetyl)thioureido]phenoxy}-2-[(morpholin-4-yl)carbonylamino]pyridine]
63 | 340 | CN1CCC(N(C)C(=O)Nc2cc(Oc3ccc(NC(=O)NC(=O)Cc4ccccc4)cc3F)ccn2)CC1 [Example 52, 3-{4-[2-Fluoro-4-(3-phenylacetylureido)phenoxy]pyridin-2-yl]-1-methyl-1-(1-methylpiperidin-4-yl)urea]
33 | 20 | O=C(Cc1ccc(F)cc1)NC(=S)Nc1ccc(Oc2ccnc(NC(=O)N3CCCC3)c2)cc1 [Example 9, Pyrrolidine-1-carboxylic acid [4-(4-{3-[2-(4-fluorophenyl)acetyl]thioureido}phenoxy)pyridin-2-yl]amide]
140 | 130 | O=C(CC(=O)Nc1ccc(Oc2ccnc(NC(=O)N3CCCC3)c2)c(F)c1)Nc1ccc(F)cc1 [Example 56, N-(4-Fluorophenyl)-N′-(3-fluoro-4-{2-[(pyrrolidine-1-carbonyl)amino]pyridin-4-yloxy}phenyl)malonamide]
630 | 590 | Cc1cc(Oc2ccnc(NC(=O)N3CCC(N4CCCC4)CC3)c2)ccc1NC(=O)CC(=O)Nc1ccc(F)cc1 [Example 85, N-(4-Fluorophenyl)-N′-[2-methyl-4-(2-{[(4-pyrrolidin-1-yl)piperidine-1-carbonyl]amino}pyridin-4-yloxy)phenyl]malonamide]
23 | 6.8 | O=C(Cc1ccc(F)cc1)NC(=S)Nc1ccc(Oc2ccnc(NC(=O)N3CCCC3)c2)c(F)c1 [Example 13, 4-(2-Fluoro-4-{3-[2-(4-fluorophenyl)acetyl]thioureido}phenoxy)-2-[(pyrrolidin-1-yl)carbonylamino]pyridine]
110 | 110 | O=C(CC(=O)Nc1ccc(Oc2ccnc(NC(=O)C3CC3)c2)cc1F)Nc1ccc(F)cc1 [Example 77, N-(4-Fluorophenyl)-N′-{4-[2-(cyclopropanecarbonylamino)pyridin-4-yloxy]-2-fluorophenyl}malonamide]
57 | 260 | O=C(Cc1ccccc1)NC(=O)Nc1ccc(Oc2ccnc(NC(=O)N3CCOCC3)c2)c(F)c1 [Example 48, Morpholine-4-carboxylic acid {4-[2-fluoro-4-(3-phenylacetylureido)phenoxy]pyridin-2-yl}amide]
40 | 20 | O=C(Cc1ccc(F)cc1)NC(=S)Nc1ccc(Oc2cc(NC(=O)N3CCCC3)ncn2)c(F)c1 [Example 3, Pyrrolidine-1-carboxylic acid [6-(2-fluoro-4-{3-[2-(4-fluorophenyl)acetyl]thioureido}phenoxy)pyrimidin-4-yl]amide]
180 | 69 | Cc1cc(NC(=S)NC(=O)Cc2ccc(F)cc2)ccc1Oc1ccnc(NC(=O)N2CCOCC2)c1 [Example 24, Morpholine-4-carboxylic acid (4-{2-methyl-4-[3-(4-fluorophenyl)acetylthioureido]phenoxy}pyridin-2-yl)amide]
5.8 | 19 | CN1CCC(N(C)C(=O)Nc2cc(Oc3ccc(NC(=S)NC(=O)Cc4ccccc4)cc3F)ccn2)CC1 [Example 28, 3-{4-[2-Fluoro-4-(3-phenylacetylthioureido)phenoxy]pyridin-2-yl}-1-methyl-1-(1-methylpiperidin-4-yl)urea]
570 | 540 | CN1CCCN(C(=O)Nc2cc(Oc3ccc(NC(=O)CC(=O)Nc4ccc(F)cc4)c(F)c3)ccn2)CC1 [Example 92, N-(2-Fluoro-4-{2-[(4-methyl-[1,4]diazepane-1-carbonyl)amino]pyridin-4-yloxy}phenyl)-N′-(4-fluorophenyl)malonamide]
160 | 280 | CN1CCN(C(=O)Nc2cc(Oc3ccc(NC(=O)NC(=O)Cc4ccccc4)cc3F)ccn2)CC1 [Example 50, 4-Methylpiperazine-1-carboxylic acid {4-[2-fluoro-4-(3-phenylacetylureido)phenoxy]pyridin-2-yl}amide]
140 | 350 | O=C(Cc1ccccc1)NC(=O)Nc1ccc(Oc2ccnc(NC(=O)N3CCC(N4CCCC4)CC3)c2)c(F)c1 [Example 45, 4-{2-Fluoro-4-[3-(2-phenylacetyl)ureido]phenoxy}-2-{[4-(pyrrolidin-1-yl)piperidin-1-yl]carbonylamino}pyridine]
35 | 59 | O=C(Cc1ccccc1)NC(=O)Nc1ccc(Oc2ccnc(NC(=O)N3CCCC3)c2)c(F)c1 [Example 43, 4-{2-Fluoro-4-[3-(2-phenylacetyl)ureido]phenoxy}-2-[(pyrrolidin-1-yl)carbonylamino]pyridine]
33 | < 30 | CCN(CC)CCCN(C)C(=O)Nc1cc(Oc2ccc(NC(=S)NC(=O)Cc3ccc(F)cc3)cc2F)ccn1 [Example 22, 1-(3-Diethylaminopropyl)-3-[4-(2-fluoro-4-{3-[2-(4-fluorophenyl)acetyl]thioureido}phenoxy)pyridin-2-yl]-1-methylurea]
120 | 88 | O=C(CC(=O)Nc1ccc(Oc2ccnc(NC(=O)N3CCC(N4CCCC4)CC3)c2)cc1F)Nc1ccc(F)cc1 [Example 82, N-(4-Fluorophenyl)-N′-[2-fluoro-4-(2-{[4-(pyrrolidin-1-yl)piperidine-1-carbonyl]amino}pyridin-4-yloxy)phenyl]malonamide]
64 | 350 | CN(C)C(=O)Nc1cc(Oc2ccc(NC(=O)NC(=O)Cc3ccccc3)cc2F)ccn1 [Example 44, 2-[(Dimethylamino)carbonylamino]-4-{2-fluoro-4-[3-(2-phenylacetyl)ureido]phenoxy}pyridine]
570 | 120 | CN(C)C(=O)Nc1cc(Oc2ccc(NC(=S)NC(=O)CC3CC4CCC3C4)cc2F)ccn1 (stereo not shown) [Example 17, 2-[(Dimethylamino)carbonylamino]-4-{2-fluoro-4-[3-(2-norbornaneacetylthio)ureido]phenoxy}pyridine]
48 | 13 | O=C(Cc1ccccc1)NC(=S)Nc1ccc(Oc2ccnc(NC(=O)N3CCC(O)CC3)c2)c(F)c1 [Example 15, 4-{2-Fluoro-4-[3-(2-phenylacetyl)thioureido]phenoxy}-2-[(4-hydroxypiperidin-1-yl)carbonylamino]pyridine]
